Assay results reported in patent US9988371B2, “Benzimidazole analogues and related methods” (The Arizona Board of Regents, on Behalf of the University …, priority 2014, dated 2018).

Key:
[1] = test system: TT cells (MTC, RET/C634W); test: Growth curve proliferation assay, TT cells; type: cell-based; conditions: Homo sapiens, last day of growth curves
Description: FIG. 5: Effects exerted by indicated concentrations of Pz-1 or vehicle (NT: not treated) on proliferation of TT (human MTC cell line expressing RET/C634W), Lc-2/ad (human NSCLC expressing CCDC6-RET) and Nthy-ori-3-1 (thyroid non-transformed) cell lines. Data are the mean±SD (Standard Deviation) of one experiment performed in triplicate. Bottom, right) Growth inhibition IC50 of Pz-1 for the different cell lines: 95% CI (confidence intervals) are indicated in brackets. Cells were seeded in triplicate in 60-mm dishes and kept in 5% (Nthy-ori-3-1) or 10% (TT and Lc-2/ad) fetal calf serum. The day after plating, different concentrations of Pz-1 or vehicle were added to the medium and changed every 2-3 days. Cells were counted every 2-3 days and cell numbers were reported±SD (Standard Deviation). IC50 doses (with Confidence Intervals) were calculated through a curve fitting analysis from the last day of growth curves using the PRIZM software program (Graphpad Software Inc).
Nthy-ory-3-1 and TTcells were seeded in 60-mm dishes. […] Cells were counted every 2-3 days. […] Parental and RET/PTC-expressing Ba/F3 were kept in 10% fetal calf serum in 6-multi wells and counted every day for 4 consecutive days, changing media every 2 days. […] IC50 doses were calculated through a curve fitting analysis from the last day of growth curves using the PRISM software program (Graphpad Software Inc). […]

[2] = test system: HRAS(G12V) transformed NIH3T3 fibroblasts; test: NIH3T3 HRAS(G12V) tumors in nude mice; type: in vivo, BALB/c nu/nu mice; conditions: 1.0, 3.0 or 10 mg/kg daily, oral gavage
Description: FIG. 8: Anti-tumorigenic activity of Pz-1 in nude mice implanted with RET/C634Y or HRAS(G12V) transformed NIH3T3 fibroblasts. […] Average tumor volume (±SD: standard deviations) is reported. NIH3T3 RET/C634Y (200,000 cells) or NIH3T3 HRAS/G12V (50,000 cells) were inoculated subcutaneously into dorsal portion (both sides) of 6-week-old female BALB/c nu/nu mice (n. 31 mice/cell line) (Jackson Laboratories, Bar Harbor, Me.). After 4 days, before tumors had appeared, animals were randomly assigned to receive Pz-1 (1.0, 3.0 or 10 mg/kg daily) (23 mice/cell line: 8 mice/group for 1.0 and 3.0 mg/kg daily doses and 7 mice for 10 dose mg/kg daily) or vehicle control (8 mice) by oral gavage. Tumor diameters were measured with calipers every 1-2 days. Tumor volumes (V) were calculated by the rotational ellipsoid formula and reported as average volumes±standard deviations. […]
TT cells (7.5×10^6/mouse) were inoculated subcutaneously into dorsal portions (both sides) of 39 SCID mice (Jackson Laboratories, Bar Harbor, Me.). […] Tumor diameters were measured with callipers every week. Tumor volumes (V) were calculated by the rotational ellipsoid formula: V=A×B^2/2 (A=axial diameter; B=rotational diameter) and reported as average volumes±standard deviations. […] Anti-tumorigenic activity of Pz-1 was also assessed in nude mice implanted with RET/C634Y or HRAS(G12V) transformed NIH3T3 fibroblasts. […]

`Cn1cc(-c2ccc3c(c2)ncn3-c2ccc(CC(=O)Nc3cc(C(C)(C)C)on3)cc2)cn1` [Pz-1, N-(5-(tert-butyl)isoxazol-3-yl)-2-(4-(5-(1-methyl-1H-pyrazol-4-yl)-1H-benzo[d]imidazol-1-yl)phenyl)acetamide] was tested, and the IC50 [1] was 1.86 nM and the “formation of tumors driven by the HRAS oncogene” value [2] was “only reduced, but did not abrogate”.
